Reference: publication PMC7213079, “Hit Identification of New Potent PqsR Antagonists as Inhibitors of Quorum Sensing in Planktonic and Biofilm Grown Pseudomonas aeruginosa” (Frontiers in Chemistry, 2020)

How the values were obtained:
Format in all cases: cell-based, Pseudomonas aeruginosa
PA14 mCTX::PpqsA-lux = test: PpqsA-lux bioreporter assay, strain PA14; conditions: for IC50 PA14: PpqsA-lux bioreporter, n = 9, NA = not active at 10 μM; for IC50: Pseudomonas aeruginosa, PA14, read-out: IC50 PA14
Description: To inform the structural variation of 7, crystal structures with the endogenous ligand [4-hydroxy-2-heptylquinoline (NHQ)] and the inhibitor M64 were used (Ilangovan et al., [2013]; Kitao et al., [2018]). The PqsR LBD is dominated by lipophilic interactions, therefore the current SAR exploration mainly focused on varying the aromatic tail substituents and examining the effect of 8-position substitution. The rationale for these modifications was primarily based on molecular docking studies that provided insights into the mode of binding of 7 and approaches intended to improve potency. The substituent at the para- position of the aromatic ring appeared to be crucial for biological activity due to the vital π-π stacking interaction of this group with Tyr^258. […] These strains emit light upon activation of PqsR by the endogenous production of these signal molecules. […] The results of the SAR in this assay highlight the importance of testing any prospective anti-virulence strategy on multiple genetically distinct P. aeruginosa strains as a means to reduce the chance of failure at both pre-clinical and clinical stages (Freschi et al., [2015]). […]
(§1) PA14 mCTX::PpqsA-lux PA14 with chromosomal mini-CTX::PpqsA-lux (Soukarieh insertion; TcR et al., 2018) […]
(§2) mini-CTX::PpqsA-lux R6K-based mini-CTX suicide plasmid for the (Diggle et chromosomal insertion of a PpqsA-lux al., 2007) transcriptional reporter fusion; TcR
(§3) Biosensor reporter assay:
(§4) Strains PA14 mCTX::PpqsA-lux and PAO1-L mCTX::PpqsA-lux were constructed using plasmid mini-CTX::PpqsA-lux as previously described (Diggle et al., 2007) and the assay was performed according to published procedures (Fletcher et al., 2007). For screening, the compounds were tested at 10 µM concentration which was prepared from 10 mM stock in DMSO. […]

PAO1-L mCTX::PpqsA-lux = test: PpqsA-lux bioreporter assay, strain PAO1-L; conditions: for IC50 / activity at 10 µM: Pseudomonas aeruginosa; for IC50: PAO1, read-out: IC50 PAO1-L; for activity at 10 µM: PAO1, read-out: Remaining Activity % (RA%) at 10 μM PAO1-L; for IC50 PAO1-L: n = 9, NA = not active at 10 μM
Method: In silico virtual screening was performed on the PqsR ligand binding domain (LBD) crystal structure [PDB: 4JVI; (Ilangovan et al., [2013])] using the University of Nottingham Managed Chemical Compound Collection (MCCC) containing 85,061 compounds. Molecular docking was performed using both the OpenEye docking (OpenEye Scientific Software Inc. (Hawkins et al., [2007]) and Schrödinger Suite for molecular modeling (Friesner et al., [2004]; Halgren et al., [2004]). A cut off value of the docking score function was set to -9.0 and the resulting high scoring compounds were further examined (Friesner et al., [2004]; Halgren et al., [2004]). This gave a library of around 500 diverse molecules that were evaluated using in vitro screening in a P. aeruginosa PAO1-L mCTX::PPqsA-lux reporter assay (Diggle et al., [2011]).
To inform the structural variation of 7, crystal structures with the endogenous ligand [4-hydroxy-2-heptylquinoline (NHQ)] and the inhibitor M64 were used (Ilangovan et al., [2013]; Kitao et al., [2018]). The PqsR LBD is dominated by lipophilic interactions, therefore the current SAR exploration mainly focused on varying the aromatic tail substituents and examining the effect of 8-position substitution. The rationale for these modifications was primarily based on molecular docking studies that provided insights into the mode of binding of 7 and approaches intended to improve potency. The substituent at the para- position of the aromatic ring appeared to be crucial for biological activity due to the vital π-π stacking interaction of this group with Tyr^258. […] These strains emit light upon activation of PqsR by the endogenous production of these signal molecules. […] The results of the SAR in this assay highlight the importance of testing any prospective anti-virulence strategy on multiple genetically distinct P. aeruginosa strains as a means to reduce the chance of failure at both pre-clinical and clinical stages (Freschi et al., [2015]).
(§5) PAO1-L Wild type PAO1, Lausanne subline. B.
PAO1-L mCTX::PpqsA- PAO1-L with chromosomal mini-CTX::PpqsA-lux (Soukarieh lux insertion; TcR et al., 2018) […]
as §2, §3, §4

PA14 = test: Pyocyanin quantification, PA14; conditions: PA14, compound at 3 x IC50, 16 h, compared with the control
Description: Pyocyanin is an important virulence factor for P. aeruginosa infections and in particular respiratory and urinary tract infections. Pyocyanin is a redox-active phenazine the production of which is regulated via PqsR and PqsE (Hall et al., [2016]; Rampioni et al., [2016]; Higgins et al., [2018]). Therefore, pyocyanin production serves as an indirect readout of the activity of the pqs QS system. […] Compound 40 reduced pyocyanin production by over 80% in both strains in agreement with bioreporter assay results.
Figure 4 Pyocyanin production by Pseudomonas aeruginosa after treatment with pqs inhibitors 8, 14, 23, 34, 25, 26, and 40. Quantification of pyocyanin production after inhibitor treatment at 3 × IC50 for both PAO1-L and PA14. The graph represents the average of three independent experiments carried out in triplicate (n = 9).
as §5
PAO1-L mCTX::PpqsA- PAO1-L with chromosomal mini-CTX::PpqsA-lux (Soukarieh lux insertion; TcR et al., 2018)
PA14 Wild type UCBPP-PA14 (Rahme et
as §1
Pyocyanin quantification: […]
Pyocyanin pigment was extracted into chloroform by mixing 7.5 mL of supernatant with 4.5 mL of chloroform. Pyocyanin w as further extracted into 1.5 mL of 0.2 M HCL which gave a pink/red solution and the absorbance was measured at 520 nm.

| Compound | IC50 PA14 (PA14 mCTX::PpqsA-lux) | IC50 (PAO1-L mCTX::PpqsA-lux) | IC50 (PA14 mCTX::PpqsA-lux) | also measured |
| --- | --- | --- | --- | --- |
| Cn1c2ccccc2c2nnc(SCC(=O)Nc3ccc(Cl)cc3)nc21 [Compound 7, N-(4-Chlorophenyl)-2-((5-methyl-5H-[1,2,4]triazino[5,6-b]indol-3-yl)thio)acetamide] | inactive | 0.98 ± 0.02 µM | – | – |
| Cn1c2ccc(Br)cc2c2nnc(SCC(=O)Nc3ccc(Cl)cc3)nc21 [Compound 8, 2-((8-Bromo-5-methyl-5H-[1,2,4]triazino[5,6-b]indol-3-yl)thio)-N-(4-chlorophenyl)acetamide] | – | 1.99 ± 0.23 µM | 1.6 ± 0.16 µM | – |
| Cn1c2ccccc2c2nnc(SCC(=O)Nc3cccc(Cl)c3)nc21 [Compound 11, N-(3-Chlorophenyl)-2-((5-methyl-5H-[1,2,4]triazino[5,6-b]indol-3-yl)thio)acetamide] | inactive | – | – | activity at 10 µM (PAO1-L mCTX::PpqsA-lux): 34% |
| Cn1c2ccc(Br)cc2c2nnc(SCC(=O)Nc3cccc(Cl)c3)nc21 [Compound 12, 2-((8-Bromo-5-methyl-5H-[1,2,4]triazino[5,6-b]indol-3-yl)thio)-N-(3-chlorophenyl)acetamide] | inactive | – | – | activity at 10 µM (PAO1-L mCTX::PpqsA-lux): 43% |
| Cn1c2ccc(Br)cc2c2nnc(SCC(=O)Nc3ccc(Cl)c(Cl)c3)nc21 [Compound 14, 2-((8-Bromo-5-methyl-5H-[1,2,4]triazino[5,6-b]indol-3-yl)thio)-N-(3,4-dichlorophenyl)acetamide] | – | 3.1 ± 0.52 µM | 7.58 ± 0.82 µM | – |
| Cn1c2ccc(Br)cc2c2nnc(SCC(=O)Nc3ccc(F)cc3)nc21 [Compound 16, 2-((8-Bromo-5-methyl-5H-[1,2,4]triazino[5,6-b]indol-3-yl)thio)-N-(4-fluorophenyl)acetamide] | – | 1.36 ± 0.21 µM | – | – |
| Cc1ccc(NC(=O)CSc2nnc3c4ccccc4n(C)c3n2)cc1 [Compound 17, 2-((5-Methyl-5H-[1,2,4]triazino[5,6-b]indol-3-yl)thio)-N-(p-tolyl)acetamide] | – | 1.86 ± 0.01 µM | – | – |
| Cc1ccc(NC(=O)CSc2nnc3c4cc(Br)ccc4n(C)c3n2)cc1 [Compound 18, 2-((8-Bromo-5-methyl-5H-[1,2,4]triazino[5,6-b]indol-3-yl)thio)-N-(p-tolyl)acetamide] | – | – | – | activity at 10 µM (PAO1-L mCTX::PpqsA-lux): 32% |
| Cn1c2ccccc2c2nnc(SCC(=O)Nc3ccc(OC(F)(F)F)cc3)nc21 [Compound 21, 2-((5-Methyl-5H-[1,2,4]triazino[5,6-b]indol-3-yl)thio)-N-(4(trifluoromethoxy)phenyl)acetamide] | – | – | – | activity at 10 µM (PAO1-L mCTX::PpqsA-lux): 29% |
| Cn1c2ccc(Br)cc2c2nnc(SCC(=O)Nc3ccc(OC(F)(F)F)cc3)nc21 [Compound 22, 2-((8-Bromo-5-methyl-5H-[1,2,4]triazino[5,6-b]indol-3-yl)thio)-N-(4-(trifluoromethoxy)phenyl)acetamide] | – | – | – | activity at 10 µM (PAO1-L mCTX::PpqsA-lux): 23% |
| Cn1c2ccccc2c2nnc(SCC(=O)Nc3ccc(CC#N)cc3)nc21 [Compound 23, N-(4-(Cyanomethyl)phenyl)-2-((5-methyl-5H-[1,2,4]triazino[5,6-b]indol-3-yl)thio)acetamide] | – | 0.62 ± 0.1 µM | 2 ± 0.17 µM | inhibition of pyocyanin production (PA14): most potent inhibitor |
| Cn1c2ccccc2c2nnc(SCC(=O)Nc3ccc(Oc4ccccc4)cc3)nc21 [Compound 24, 2-((5-Methyl-5H-[1,2,4]triazino[5,6-b]indol-3-yl)thio)-N-(4-phenoxyphenyl)acetamide] | – | 0.38 ± 0.06 µM | 0.35 ± 0.06 µM | fold higher activity in PAO1-L compared to 7 (PAO1-L mCTX::PpqsA-lux; PpqsA-lux bioreporter): ~2.5 fold |
| Cn1c2ccc(Br)cc2c2nnc(SCC(=O)Nc3ccc(Oc4ccccc4)cc3)nc21 [Compound 25, 2-((8-Bromo-5-methyl-5H-[1,2,4]triazino[5,6-b]indol-3-yl)thio)-N-(4-phenoxyphenyl)acetamide] | – | 4.36 ± 0.42 µM | – | – |
| Cn1c2ccccc2c2nnc(SCC(=O)Nc3ccc(Br)cc3)nc21 [Compound 26, N-(4-Bromophenyl)-2-((5-methyl-5H-[1,2,4]triazino[5,6-b]indol-3-yl)thio)acetamide] | – | 1.71 ± 0.26 µM | 1.35 ± 0.19 µM | – |
| Cn1c2ccc(Br)cc2c2nnc(SCC(=O)Nc3ccc(Br)cc3)nc21 [Compound 27, 2-((8-Bromo-5-methyl-5H-[1,2,4]triazino[5,6-b]indol-3-yl)thio)-N-(4-bromophenyl)acetamide] | inactivity | 23 ± 9 µM | – | – |
| Cn1c2ccccc2c2nnc(SCC(=O)Nc3ccc(Oc4ncccn4)cc3)nc21 [Compound 28, 2-((5-Methyl-5H-[1,2,4]triazino[5,6-b]indol-3-yl)thio)-N-(4-(pyrimidin-2yloxy)phenyl)acetamide] | – | 1.04 ± 0.12 µM | 1.33 ± 0.33 µM | – |
| Cn1c2ccccc2c2nnc(SCC(=O)Nc3ccccc3Cl)nc21 [Compound 38, N-(2-Chlorophenyl)-2-((5-methyl-5H-[1,2,4]triazino[5,6-b]indol-3-yl)thio)acetamide] | inactive | – | – | IC50 PAO1-L (PAO1-L mCTX::PpqsA-lux; PpqsA-lux bioreporter): inactive |
| Cn1c2ccc(Br)cc2c2nnc(SCC(=O)Nc3ccccc3Cl)nc21 [Compound 39, 2-((8-Bromo-5-methyl-5H-[1,2,4]triazino[5,6-b]indol-3-yl)thio)-N-(2-chlorophenyl)acetamide] | inactive | – | – | IC50 PAO1-L (PAO1-L mCTX::PpqsA-lux; PpqsA-lux bioreporter): inactive |
| O=C(CSc1nc2cc([N+](=O)[O-])ccc2[nH]1)Nc1ccc(Oc2ccccc2)cc1 [Compound M64, reference compound] | – | 0.32 ± 0.14 µM | 1.22 ± 0.34 µM | – |
